Reference: patent US4300557A, “Method for treating intraocular malignancies” (The United States of America as represented by the …, priority 1980, dated 1981)
“And” between values parts separate entries of the source, which are not always exact repeats. Identical values can stand only once. Like-named read-outs stand apart in the source and are kept apart here.

Assays:
Brown-Pearce epithelioma = test: In vivo testing in rabbits with intracameral Brown-Pearce epithelioma, clinical results; set-up: species or system New Zealand female albino rabbits; reduction in tumor growth: dose or concentration left out as unconfirmed; details: for Day Tumor Destroyed Whole Eye, Treated Eye: * eye not yet destroyed by day of enucleation
Excerpt: Preoperative examination of 28 eyes in 14 New Zealand femal albino rabbits weighing 2.0 to 2.5 kg included biomicroscopy, tonotometry, and indirect ophthalmoscopy. All animals had normal eyes. Both eyes of each animal were inoculated intracamerally with Brown-Pearce epithelioma tissue by the technique at 993 of Liu et al., Invest. Ophthalmol Visual Sci., Vol. 17 (1978).
Three days after tumor tissue implantation, a silicone device described in Example 1 was implanted episclerally in each eye. Animals were anesthetized with sodium pentobarbital 24 mg/kg body weight administered intravenously. After routine preparation of the rabbit and the eyes, a pocket beneath the conjunctiva and Tenon's capsule was made in the upper temporal quadrant of the eye. The silicone device was inserted into the pocket but the small tube remained accessible to permit injection of test substance. Two 7-0 silk sutures were applied on both shoulders of the silicone device and on the episcleral tissue at the pars plana to hold the device in position. The conjunctiva was closed with two 7-0 silk sutures. […] 5. The injecting tube was fixed on the upper fornix.
Seven animals (Group 1A) received 3.0 mg of BCNU in 0.15 ml of sesame oil in one eye on the third, sixth, and ninth days after tumor implantation (total dose 9.0 mg). Three animals (Group 1B) received 12.0 mg of BCNU in 0.15 ml of sesame oil on the same schedule (total dose 36.0/mg). […] The fellow eyes served as controls and received diluent only.
Ocular examinations were made on alternate days during the 20 days following tumor implantation; at that time all eyes were enucleated. The effectiveness of treatment was measured by (1) comparing the extent of tumor growth in the anterior chamber of treated and control eyes, (2) noting the occurrence of distortion and perforation of the globe due to tumor growth, (3) weighing all eyes following enucleation, and (4) comparing the histopathologic changes in the eyes.
Clinical results, tabulated below, indicate the day on which the tumor occupied the anterior chamber and the weight of the enucleated eyes. The first day was the day on which tumor tissue was implanted.

[1] = Stability of BCNU in aqueous solution (absorbance at 232 nm); type: physicochemical
Excerpt: The decomposition of BCNU in water and in 1% aqueous ethanol was followed by measuring the characteristic BCNU absorbance maximum at 232 nm, using a Beckman DK-2A spectrophotometer. A second maximum that appeared at 190 nm and increased during decomposition was not a reliable indicator of the drug's breakdown.

[2] = cited from earlier work
E. coli = test: Microbiological assay of BCNU: inhibition of E. coli in agar plates; type: cell-based
Description: BCNU activity was evaluated by placing a silicone balloon containing BCNU in 0.2 ml of ethanol in a gelled agar plate seeded with E. coli (10^6 colonies/ml). The balloon was covered with a layer of seeded agar. The culture was incubated overnight at 35° C. and the zone of inhibition was measured. The balloons were transferred daily to new plates and the procedure repeated as long as activity was detected. The diameters of the zones of inhibition were compared with a standard semilogarythmic plot obtained using known amount of BCNU absorbed in filter paper about the size of the balloons. […] In control experiments with balloons filled with 0.2 ml of ethanol no inhibition of E. coli was observed. After a single overnight incubation, all of the alcohol had diffused from the balloon.
The smaller zone was very clear, and probably totally free of bacterial growth. The larger one was distinct, but had some diffuse bacterial growth. […] The microbiological assay is a useful test of cytotoxic activity of the implants, but the results are only semiquantitative, owing to simultaneous decomposition and diffusion of BCNU.
A 10 mg sample of solid was placed in a 7-mm-diameter reservoir made of two silicone membranes (0.1 mm thick) separated by a silicone rubber ring spacer (1.0 mm wide×1.5 mm thick) and glued with silicone adhesive. The sandwich-type silicone device containing 10 mg of solid BCNU was imbedded in agar plates seeded with E. coli and incubated repeatedly as in Example 5(a).

[3] = Group IA: 3.0 mg BCNU in sesame oil, days 3, 6 and 9
[4] = Group IB: 12.0 mg BCNU in sesame oil, days 3, 6 and 9
[5] = Group II: 13.0 mg BCNU in pure ethanol, days 3 and 6

For O=NN(CCCl)C(=O)NCCCl [BCNU, 1,3-bis-(2-chloroethyl)-1-nitrosourea], the “reduction of tumor growth” value (Brown-Pearce epithelioma; 3.0 or 12.0 mg BCNU in 0.15 ml sesame oil, days 3, 6 and 9) was “Significant reduction of tumor growth”, the therapeutic results (Brown-Pearce epithelioma; BCNU in absolute ethanol, silicone balloons 0.1-0.2 mm wall) was “good therapeutic results” and the “Aver. wt of eyes after enucleation, treated eye” value (shortened to “Aver. wt of eyes”) (Brown-Pearce epithelioma; Group I (IA and IB), sesame oil, 10 treated eyes) was 5.2 g. The “growth of the implanted tumor tissue in the anterior chamber” value (Brown-Pearce epithelioma; Group I, BCNU in sesame oil) was “slowed in all 10 eyes”, the “Aver. wt of eyes” value (Brown-Pearce epithelioma; Group IA, 3.0 mg in sesame oil) was 5.7 g and the “eyes retaining normal shape and size without distortion for 15 days” value (Brown-Pearce epithelioma; Group IA, three doses of 3.0 mg in sesame oil, 15 days after tumor implantation) was “six eyes of the seven”. For the same compound, the “Day Tumor Occupied Anterior Chamber, Treated Eye” value (Brown-Pearce epithelioma; [3]) was 13 days and 14 days and 12 days and 18 days, the “Day Tumor Destroyed Whole Eye, Treated Eye” value (“Day Tumor Destroyed Whole Eye” below) (Brown-Pearce epithelioma; [3]) was 18 days and 19 days and 17 days and 16 days and > 18 days and 15 days and the “Aver. wt of eyes” value (Brown-Pearce epithelioma; Group IB, 12.0 mg in sesame oil) was 4.1 g. The “eyes retaining normal shape and size without distortion for 19 days” value (Brown-Pearce epithelioma; Group IB, three doses of 12.0 mg in sesame oil, 19 days after tumor implantation) was “Two eyes of the three”, the “Day Tumor Occupied Anterior Chamber, Treated Eye” value (Brown-Pearce epithelioma; [4]) was 20 days and 17 days and 11 days and the “Weight of Eyes After Enucleation, Treated Eye” value (Brown-Pearce epithelioma; [4]) was 3.5 g and 5.2 g. The “Day Tumor Destroyed Whole Eye” value (Brown-Pearce epithelioma; [4]) was > 20 days and 20 days and 17 days, the “average weight of the four treated eyes after enucleation” value (Brown-Pearce epithelioma; Group II, BCNU in pure ethanol) was 3.1 gm and the “response of treated eyes” value (Brown-Pearce epithelioma; Group II, BCNU in pure ethanol) was “Each of the four eyes treated showed good response”. The “tumor tissue growth in the anterior chamber on the fifteenth day” value (Brown-Pearce epithelioma; Group II, BCNU in pure ethanol, day 15) was “almost completely arrested in three of the four treated eyes”, the “eyes retaining normal shape and size on the twentieth day” value (Brown-Pearce epithelioma; Group II, BCNU in pure ethanol, day 20) was “all four treated eyes retained their normal shape and size” and the “Aver. wt of eyes” value (Brown-Pearce epithelioma; Group II, pure ethanol) was 3.1 g. The “Day Tumor Occupied Anterior Chamber, Treated Eye” value (Brown-Pearce epithelioma; [5]) was 18 days and 15 days and 20 days, the “Weight of Eyes After Enucleation, Treated Eye” value (Brown-Pearce epithelioma; [5]) was 2.8 g and 3.2 g and 3.3 g and the “Day Tumor Destroyed Whole Eye” value (Brown-Pearce epithelioma; [5]) was > 20 days and > 29 days. The “reduction in tumor growth” value (Brown-Pearce epithelioma; absolute ethanol (so in the source), days 3 and 6) was “greatest reduction in tumor growth”, the “Aver. wt. of eyes after enucleation, treated eye” value (Brown-Pearce epithelioma; all eyes (Groups I and II)) was 4.6 g and the half-life ([1]; 1% ethanol, 1% ethanol solution, of the order of, read-out: Decomposition of BCNU in 1% ethanol solution) was roughly 4.1 h. For the same compound, the half-life ([1]; 1% ethanol, 37° C., read-out: half-life of BCNU in 1% ethanol) was 4.1 h, the half-life ([1]; water, 37° C., read-out: half-life of BCNU in water) was 3.83 h and the “degradation in aqueous media” value [2] was “degrades rapidly in aqueous media”. The “depletion of drug activity, solid BCNU in sandwich-type silicone device” value (E. coli; 10 mg solid BCNU versus 10 mg BCNU in 0.2 ml ethanol in balloon) was “depletion of drug activity similar to that obtained with 10 mg BCNU in 0.2 ml ethanol in a silicone balloon”, the “activity in the seventh incubation” value (E. coli; 30 and 40 mg BCNU in 0.2 ml ethanol) was “zero activity” and the “activity in consecutive incubations” value (E. coli; 30 and 40 mg BCNU in 0.2 ml ethanol, daily incubations at 35° C.) was “comparable activity for six consecutive incubations”. For the same compound, the “duration of inhibition of growth of E. coli cultures” value (E. coli; 30 or 40 mg BCNU in ethanol, silicone microballoons) was 6 days, the zones of inhibition (E. coli; BCNU in 0.2 ml ethanol, balloons, overnight 35° C.) was “two concentric and distinct zones of inhibition” and the “BCNU remaining inside balloons after first incubation in agar” value (E. coli; BCNU in ethanol) was “essentially pure BCNU remains inside the balloons”. The “BCNU content of balloons after first night's incubation” value (E. coli; BCNU in ethanol, after first overnight incubation) was roughly 100% and the “inhibitory activity versus filter paper impregnated with known amounts of BCNU” value (E. coli; ethanolic solutions in silicone microballoons) was “unimpaired”.
